# Measurements as given in patent US9796716B2, “Selective inhibitors of Tec and Src protein kinase families” (Pharmascience, Inc., priority 2012, dated 2017).
# What was measured:
# [1] = molecular target: recombinant human full-length Bruton Agammaglobulinemia Tyrosine Kinase (Btk) (Homo sapiens (Human), UniProt Q06187); experiment: Btk Kinase Inhibition Assay (fluorescence polarization); assay type: biochemical; conditions: 10 μM ATP, 250 μM substrate, 60 minutes; Ki calculated from IC50 using the Cheng-Prusoff equation
# Chain of recombinant human full-length Bruton Agammaglobulinemia Tyrosine Kinase (Btk) (Q06187 whole entry): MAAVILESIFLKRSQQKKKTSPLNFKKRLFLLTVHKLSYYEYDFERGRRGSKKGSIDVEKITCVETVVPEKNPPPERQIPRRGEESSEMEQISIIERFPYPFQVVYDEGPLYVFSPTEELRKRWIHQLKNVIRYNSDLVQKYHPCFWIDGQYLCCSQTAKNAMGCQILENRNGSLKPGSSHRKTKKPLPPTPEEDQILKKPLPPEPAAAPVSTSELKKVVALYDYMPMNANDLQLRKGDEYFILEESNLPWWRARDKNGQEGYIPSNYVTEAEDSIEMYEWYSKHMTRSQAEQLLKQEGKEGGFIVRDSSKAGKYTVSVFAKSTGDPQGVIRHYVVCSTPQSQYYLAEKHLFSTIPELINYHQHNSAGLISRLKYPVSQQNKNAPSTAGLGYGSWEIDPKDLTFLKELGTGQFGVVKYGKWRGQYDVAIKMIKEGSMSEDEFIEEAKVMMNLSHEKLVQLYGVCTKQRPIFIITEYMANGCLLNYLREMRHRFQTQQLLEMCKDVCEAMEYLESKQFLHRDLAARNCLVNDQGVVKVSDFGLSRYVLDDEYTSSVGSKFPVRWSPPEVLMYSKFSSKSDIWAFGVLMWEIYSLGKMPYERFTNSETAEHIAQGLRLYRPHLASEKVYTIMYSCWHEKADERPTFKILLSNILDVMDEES
# Method: Kinase Binding Btk Kinase Inhibition Assay
# Fluorescence polarization-based kinase assays were performed in 384 well-plate format using histidine tagged recombinant human full-length Bruton Agammaglobulinemia Tyrosine Kinase (Btk) and a modified protocol of the KinEASE™ FP Fluorescein Green Assay supplied from Millipore. Kinase reaction were performed at room temperature for 60 minutes in presence of 250 μM substrate, 10 μM ATP and variable test article concentrations. The reaction was stopped with EDTA/kinase detection reagents and the polarization measured on a Tecan 500 instrument. From the dose-response curve obtained, the IC50 was calculated using Graph Pad Prisms® using a non linear fit curve. The Km for ATP on each enzyme was experimentally determined and the Ki values calculated using the Cheng-Prusoff equation (see: Cheng Y, Prusoff W H. (1973) Relationship between the inhibition constant (K1) and the concentration of inhibitor which causes 50 percent inhibition (I50) of an enzymatic reaction”. Biochem Pharmacol 22 (23): 3099-108).
# [2] = tested on: Splenocytes (B cell proliferation stimulated with anti-IgM F(ab′)2); experiment: Splenic Cell Proliferation Assay; assay type: cell-based; conditions: Mus musculus, Splenocyte, 72 h, CD1 mouse splenocytes, 2.5 ug/ml anti-IgM F(ab′)2 for 72 h, Cell Titer-Glo; read-out: EC50 (nM), Inhibition of splenic cell proliferation
# Method: Splenic Cell Proliferation Assay
# Splenocytes were obtained from 6 week old male CD1 mice (Charles River Laboratories Inc.). Mouse spleens were manually disrupted in PBS and filtered using a 70 um cell strainer followed by ammonium chloride red blood cell lysis. Cells were washed, resuspended in Splenocyte Medium (HyClone RPMI supplemented with 10% heat-inactivated FBS, 0.5× non-essential amino acids, 10 mM HEPES, 50 uM beta mercaptoethanol) and incubated at 37° C., 5% CO2 for 2 h to remove adherent cells. Suspension cells were seeded in 96 well plates at 50,000 cells per well and incubated at 37° C., 5% CO2 for 1 h. Splenocytes were pre-treated in triplicate with 10,000 nM curves of Formula 1 compounds for 1 h, followed by stimulation of B cell proliferation with 2.5 ug/ml anti-IgM F(ab′)2 (Jackson ImmunoResearch) for 72 h. Cell proliferation was measured by Cell Titer-Glo Luminescent Assay (Promega). EC50 values (50% proliferation in the presence of compound as compared to vehicle treated controls) were calculated from dose response compound curves using GraphPad Prism Software.
Ki [1] [nM],SMILES,EC50 [2] [nM]
< 100,COc1ccc(COc2cccc(Oc3ccc(-c4nn(C5CCCC5)c5ncnc(N)c45)cc3)c2)cc1 [Compound 11],100 to 1000
< 100,CC(=O)N1CCC[C@@H](n2nc(-c3ccc(Oc4cccc(COc5ccccc5C(F)(F)F)c4)cc3)c3c(N)ncnc32)C1 [Compound 33],< 100
< 100,Cn1nc(-c2ccc(Oc3cccc(COc4ccccc4C#N)c3)cc2)c2c(N)ncnc21 [Compound 17],100 to 1000
< 100,[2H]C([2H])(Oc1cc(F)cc(Oc2ccc(-c3nn(C4CCOCC4)c4ncnc(N)c34)cc2)c1)c1cnc(C)s1 [Compound 64],< 100
< 100,N#Cc1ccccc1OCc1cccc(Oc2ccc(-c3nn(C4CCOCC4)c4ncnc(N)c34)cc2)c1 [Compound 22],< 100
< 100,CC(C)C(=O)N1CCC[C@@H](n2nc(-c3ccc(Oc4cccc(OCc5ccccc5)c4)cc3)c3c(N)ncnc32)C1 [Compound 8],< 100
< 100,Cc1ncc(COc2cc(F)cc(Oc3ccc(-c4nn(CCO)c5ncnc(N)c45)cc3)c2)n1C [Compound 115],100 to 1000
< 100,Nc1ncnc2c1c(-c1ccc(Oc3cccc(OCc4ccccc4)c3)cc1)nn2C1CCOCC1 [Compound 21],< 100
< 100,Nc1ncnc2c1c(-c1ccc(Oc3cccc(OCc4cncs4)c3)cc1)nn2CCN1CCCC1 [Compound 39],100 to 1000
< 100,CC(=O)N1CCC[C@@H](n2nc(-c3ccc(Oc4cccc(OCc5ccccc5C(F)(F)F)c4)cc3)c3c(N)ncnc32)C1 [Compound 26],< 100
< 100,Nc1ncnc2c1c(-c1ccc(Oc3cc(F)cc(CCc4ccccc4)c3)cc1)nn2C1CCOCC1 [Compound 66],100 to 1000
< 100,Cc1ncc(COc2cccc(Oc3ccc(-c4nn(C5CCOCC5)c5ncnc(N)c45)c(F)c3)c2)s1 [Compound 70],< 100
< 100,Cc1ncc(COc2cc(F)cc(Oc3ccc(-c4nn(CCCN5CCOCC5)c5ncnc(N)c45)cc3)c2)s1 [Compound 55],< 100
< 100,Cc1ncc(COc2cc(F)cc(Oc3ccc(-c4nn(CCO)c5ncnc(N)c45)cc3)c2)cn1 [Compound 110],100 to 1000
< 100,Cn1nc(-c2ccc(Oc3cccc(OCc4ccccc4C(F)(F)F)c3)cc2)c2c(N)ncnc21 [Compound 20],< 100
< 100,Nc1ncnc2c1c(-c1ccc(Oc3cccc(OCc4ccccc4C(F)(F)F)c3)cc1)nn2C1CCOCC1 [Compound 23],< 100
< 100,Cc1ccc(COc2cc(F)cc(Oc3ccc(-c4nn(C5CCOCC5)c5ncnc(N)c45)cc3)c2)cn1 [Compound 65],< 100
< 100,Cc1ncc(COc2cc(F)cc(Oc3ccc(-c4nn(C(CO)CO)c5ncnc(N)c45)cc3)c2)cn1 [Compound 130],100 to 1000
< 100,Nc1ncnc2c1c(-c1ccc(Oc3cccc(OCc4cncs4)c3)cc1)nn2CCc1ccccc1 [Compound 42],< 100
< 100,Cc1ncc(COc2cc(F)cc(Oc3ccc(-c4nn(CCCO)c5ncnc(N)c45)cc3)c2)cn1 [Compound 114],100 to 1000
< 100,CC(=O)N1CCC[C@@H](n2nc(-c3ccc(Oc4cccc(COc5ccccc5C#N)c4)cc3)c3c(N)ncnc32)C1 [Compound 25],< 100
< 100,Nc1ncnc2c1c(-c1ccc(Oc3cc(F)cc(OCc4cnc[nH]4)c3)cc1)nn2C1CCOCC1 [Compound 93],100 to 1000
< 100,Nc1ncnc2c1c(-c1ccc(Oc3cccc(OCc4cncs4)c3)cc1)nn2CCN1CCOCC1 [Compound 44],< 100
< 100,Cc1ncc(COc2cc(F)cc(Oc3ccc(-c4nn(C)c5ncnc(N)c45)cc3)c2)s1 [Compound 61],100 to 1000
< 100,Cc1ncc(COc2cccc(Oc3ccc(-c4nn(C5CCOCC5)c5ncnc(N)c45)cc3)c2)s1 [Compound 38],< 100
< 100,Nc1ncnc2c1c(-c1ccc(Oc3cc(F)cc(OCc4cncn4CCOCc4ccccc4)c3)cc1)nn2C1CCOCC1 [Compound 97],100 to 1000

Ki [1] [nM],SMILES,EC50 [2] [nM]
< 100,CC(=O)N1CCC[C@@H](n2nc(-c3ccc(Oc4cccc(OCc5ccccc5)c4)cc3)c3c(N)ncnc32)C1 [Compound 6],< 100
< 100,CN1CCN(CCn2nc(-c3ccc(Oc4cccc(OCc5cncs5)c4)cc3)c3c(N)ncnc32)CC1 [Compound 40],100 to 1000
< 100,Nc1ncnc2c1c(-c1ccc(Oc3cccc(OCc4ccccc4)c3)cc1)nn2C1CCCC1 [Compound 2],100 to 1000
< 100,Nc1ncnc2c1c(-c1ccc(Oc3cc(F)cc(CCc4ccccn4)c3)cc1)nn2C1CCOCC1 [Compound 86],100 to 1000
< 100,N#Cc1ccccc1COc1cccc(Oc2ccc(-c3nn(C4CCCC4)c4ncnc(N)c34)cc2)c1 [Compound 12],100 to 1000
< 100,CCn1cncc1COc1cc(F)cc(Oc2ccc(-c3nn(C4CCOCC4)c4ncnc(N)c34)cc2)c1 [Compound 87],< 100
< 100,Cn1nc(-c2ccc(Oc3cccc(OCc4cncs4)c3)cc2)c2c(N)ncnc21 [Compound 19],100 to 1000
< 100,Cc1ncc(COc2cc(F)cc(Oc3ccc(-c4nn(CC5(C)COC5)c5ncnc(N)c45)cc3)c2)n1C [Compound 124],100 to 1000
< 100,Cc1ccc(COc2cc(F)cc(Oc3ccc(-c4nn(CCCO)c5ncnc(N)c45)cc3)c2)cn1 [Compound 96],< 100
< 100,CC(C)(C)OC(=O)N1CCCC(n2nc(-c3ccc(Oc4cccc(OCc5cncs5)c4)cc3)c3c(N)ncnc32)C1 (centres unmarked) [Compound 49],< 100
< 100,Cc1ccc(COc2cc(F)cc(Oc3ccc(-c4nn(C5CCCC5)c5ncnc(N)c45)cc3)c2)cn1 [Compound 84],< 100
< 100,Cn1cncc1COc1cc(F)cc(Oc2ccc(-c3nn(C4CCOCC4)c4ncnc(N)c34)c(F)c2)c1 [Compound 73],< 100
< 100,CC(=O)N1CCC[C@@H](n2nc(-c3ccc(Oc4cccc(OCc5ccccc5C#N)c4)cc3)c3c(N)ncnc32)C1 [Compound 28],< 100
< 100,Nc1ncnc2c1c(-c1ccc(Oc3cccc(OCc4ccccc4)c3)cc1)nn2[C@@H]1CCCNC1 [Compound 4],100 to 1000
< 100,Cc1ncc(COc2cccc(Oc3ccc(-c4nn(C)c5ncnc(N)c45)cc3)c2)s1 [Compound 18],< 100
< 100,Nc1ncnc2[nH]nc(-c3ccc(Oc4cccc(OCc5ccccc5)c4)cc3)c12 [Compound 1],100 to 1000
< 100,Cc1ncc(COc2cc(F)cc(Oc3ccc(-c4nn(C(C)(C)C)c5ncnc(N)c45)cc3)c2)cn1 [Compound 129],< 100
< 100,Nc1ncnc2c1c(-c1ccc(Oc3cccc(OCc4cncs4)c3)cc1)nn2CCc1ccncc1 [Compound 41],100 to 1000
< 100,Cn1cncc1COc1cccc(Oc2ccc(-c3nn(C4CCOCC4)c4ncnc(N)c34)cc2)c1 [Compound 48],< 100
< 100,Cc1ccc(COc2cc(F)cc(Oc3ccc(-c4nn(CCO)c5ncnc(N)c45)cc3)c2)cn1 [Compound 88],< 100
< 100,CCCC(=O)N1CCC[C@@H](n2nc(-c3ccc(Oc4cccc(OCc5ccccc5)c4)cc3)c3c(N)ncnc32)C1 [Compound 7],100 to 1000
< 100,Nc1ncnc2c1c(-c1ccc(Oc3cccc(OCc4cncs4)c3)cc1)nn2C1CCNCC1 [Compound 43],100 to 1000
< 100,[2H]C([2H])(Oc1cc(F)cc(Oc2ccc(-c3nn(C4CCOCC4)c4ncnc(N)c34)cc2)c1)c1cncn1C [Compound 75],< 100
< 100,Cc1ncc(COc2cc(F)cc(Oc3ccc(-c4nn(CCN5CCCC5)c5ncnc(N)c45)cc3)c2)s1 [Compound 57],100 to 1000
< 100,Nc1ncnc2c1c(-c1ccc(Oc3cccc(OCc4cncs4)c3)cc1)nn2C1CCCNC1 (centres unmarked) [Compound 51],< 100
< 100,C=CC(=O)N1CCC[C@@H](n2nc(-c3ccc(Oc4cccc(OCc5ccccc5)c4)cc3)c3c(N)ncnc32)C1 [Compound 5],< 100
